This is an account of results in patent US12565485B2, “Solid forms of 1-((S)-4-((R)-7-(6-amino-4-methyl-3-(trifluoromethyl)pyridin-2-yl)-6-chloro-8-fluoro-2-(((s)-1-methylpyrrolidin-2-yl)methoxy)quinazolin-4-yl)-3-methylpiperazin-1-yl)prop-2-en-1-one” (Genentech, Inc., priority 2022, dated 2026).

What all share (assay type): physicochemical
A short description of data set [1]: Approximate solubility at RT (stepwise solvent addition until visually dissolved). Here is the method: The solubility of starting material was estimated at RT in 20 solvents. For each experiment, approximately 2 mg of sample was added into a 3-mL glass vial. Solvents in Table 32 were then added stepwise (50, 50, 200, 700 μL) into the vials until the solids were dissolved visually or a total volume of 1 mL was reached.

Data set [2] can be described thus: Heating under N2 protection (VT-XRPD), form change. Here is the method:
Compound B Form A was obtained from an acetone system and the sample was air dried at RT. […] (peak temperature) before the possible overlapped peak with peak temperature at 156.3° C. (FIG. 12). Based on the integrals, the stoichiometric ratio of fumaric acid:freebase was determined to be 1.03. A peak of acetone was observed and approximately 0.49 molar acetone (4.4 wt %) was detected. The HPLC purity of Compound B Form A was determined to be 93.56 area %. […] Around 0.39 molar acetone (3.5 wt %) was still detected. One endotherm at 58.7° C. and an overlapped peak with peak temperature at 157.1° C. were still observed on the sample obtained after heating. The first endotherm might be caused by re-adsorption of moisture. Since ˜3.5 wt % acetone was still detected from NMR, Compound B Form A is expected to be an acetone/H2O co-solvate. […]

Data set [3] in a line: Form change before and after drying (XRPD). The note with it: for Form change before and after drying: air dried at RT. The procedure:
The wet sample was vacuum dried at RT for 3 hrs. […] A solid was obtained with a yield of 62.2%. […] (peak temperature). Based on the integrals in NMR spectrum, the stoichiometric ratio of adipic acid:freebase was determined to be 1.06. A peak of EtOAc was observed. Around 0.07 molar EtOAc (0.8 wt %) was detected, which was consistent with TGA weight loss.
(peak), and one small endotherm at 158.8° C. […] Based on the integrals, the stoichiometric ratio of adipic acid:freebase was determined to be 1.65.
(peak temperature). Based on the integrals, the stoichiometric ratio of adipic acid:freebase was determined to be 1.06. Peak of THF was observed. Around 0.17 molar THF (1.9 wt %) was detected, which was consistent with TGA weight loss.
Compound B Form A was obtained from an acetone system and the sample was air dried at RT. […] (peak temperature) before the possible overlapped peak with peak temperature at 156.3° C. (FIG. 12). Based on the integrals, the stoichiometric ratio of fumaric acid:freebase was determined to be 1.03. A peak of acetone was observed and approximately 0.49 molar acetone (4.4 wt %) was detected. The HPLC purity of Compound B Form A was determined to be 93.56 area %. […] Around 0.39 molar acetone (3.5 wt %) was still detected. One endotherm at 58.7° C. and an overlapped peak with peak temperature at 157.1° C. were still observed on the sample obtained after heating. The first endotherm might be caused by re-adsorption of moisture. Since ˜3.5 wt % acetone was still detected from NMR, Compound B Form A is expected to be an acetone/H2O co-solvate.
Compound C Form A was obtained from EtOAc system and the sample was air dried at RT. […] HPLC purity of Compound C Form A was determined to be 95.18 area %.

Data set [4] is described as follows: VH-XRPD analysis / transitions of forms at varying relative humidity. Conditions: dehydrated. The source says: FIG. 19. The sample then reverts to the original form upon reaching 30% RH. […] Transitions of Forms of Compound A at varying RH.
A short description of data set [5]: Slurry competition between Compound A Form A and B. Here is the method: The suspensions were stirred at a speed of 750 rpm and tested by XRPD in transmission mode.
The nature of data set [6]: Static storage at 25° C./97% RH and 40° C./75% RH. The note with it: after 7 days. Here is the method: Amorphous material of Compound A (mono adipate salt) was successfully prepared through freeze drying. Characterisation of the initial batch of samples were all shown to be amorphous by XRPD and the NMR's contained ca. 1.1 eq. adipic acid with varying quantities of residual solvent, except for acetonitrile/water (1:1) which contained no residual solvent. […] Static storage at 25° C./97% RH and 40° C./75% RH after 7 days were all shown to have deliquesced.

[7] abbreviates: heating to 100° C. under N2 protection, cooled down and exposed to ambient conditions.

For the compound `C=CC(=O)N1CCN(c2nc(OC[C@@H]3CCCN3C)nc3c(F)c(-c4nc(N)cc(C)c4C(F)(F)F)c(Cl)cc23)[C@@H](C)C1` [starting material], the Solubility result in data set [1] (1,4-Dioxane) is given as “S > 38.0 mg/mL”; in data set [1] (2-MeTHF) it was “S > 40.0 mg/mL”; in data set [1] (Acetone), “S > 40.0 mg/mL”; in data set [1] (Anisole) it was “S > 38.0 mg/mL”; in data set [1] (CPME), “S > 40.0 mg/mL”; in data set [1] (DCM), “S > 38.0 mg/mL”. Besides, the Solubility result in data set [1] (DMSO) is listed as “S > 38.0 mg/mL”; in data set [1] (EtOAc), “S > 40.0 mg/mL”; in data set [1] (H2O), “S < 2.1 mg/mL”; in data set [1] (IPAc), “S > 40.0 mg/mL”; in data set [1] (MEK), “S > 46.0 mg/mL”; in data set [1] (MIBK), “S > 42.0 mg/mL”. For the same compound, the Solubility entry was “S > 42.0 mg/mL” in data set [1] (MeOH), “S > 44.0 mg/mL” in data set [1] (THF), “S > 40.0 mg/mL” in data set [1] (Toluene) and “S < 2.0 mg/mL” in data set [1] (n-Heptane).
Consider `C=CC(=O)N1CCN(c2nc(OC[C@@H]3CCCN3C)nc3c(F)c(-c4nc(N)cc(C)c4C(F)(F)F)c(Cl)cc23)[C@@H](C)C1.O=C(O)/C=C/C(=O)O` (atropisomer, axis not shown) [Compound B Form A], for which the “Form change after heating” value in data set [2] (setting [7]) was “no form change was observed”. Also, the “Form change before and after drying” value in data set [3] is “No form change was observed”.
As to `C=CC(=O)N1CCN(c2nc(OC[C@@H]3CCCN3C)nc3c(F)c(-c4nc(N)cc(C)c4C(F)(F)F)c(Cl)cc23)[C@@H](C)C1` [Compound A Form B], in data set [2] (heating to 90° C. under N2 protection), the “Form change after heating” value is reported as “no form change was observed”. The “Form change after drying” value in data set [3] (air drying at RT overnight) is reported as “No form change was observed”.
For the compound `C=CC(=O)N1CCN(c2nc(OC[C@@H]3CCCN3C)nc3c(F)c(-c4nc(N)cc(C)c4C(F)(F)F)c(Cl)cc23)[C@@H](C)C1` [Compound A Form D], the Form after dehydration result in data set [4] was “formed Compound A Form C”.
With `C=CC(=O)N1CCN(c2nc(OC[C@@H]3CCCN3C)nc3c(F)c(-c4nc(N)cc(C)c4C(F)(F)F)c(Cl)cc23)[C@@H](C)C1.CC(=O)O` (atropisomer, axis not shown) [Compound F Form A], the “Form change after heating” value in data set [2] (setting [7]) is “no form change was observed”.
In the case of `C=CC(=O)N1CCN(c2nc(OC[C@@H]3CCCN3C)nc3c(F)c(-c4nc(N)cc(C)c4C(F)(F)F)c(Cl)cc23)[C@@H](C)C1` [Compound C Form A], the “Form change after heating” value in data set [2] (heating to 100° C. under N2 protection, cooled down and exposed to ambient conditions, listed as Form A of Compound C) is “no form change was observed”. In addition, the “Form change before and after drying” value in data set [3] is “No form change was observed”.
`C=CC(=O)N1CCN(c2nc(OC[C@@H]3CCCN3C)nc3c(F)c(-c4nc(N)cc(C)c4C(F)(F)F)c(Cl)cc23)[C@@H](C)C1.O=C(O)CCCCC(=O)O` [Compound A Form A + B]: the “Slurry competition result (XRPD form)” value is on record as “Compound A Form A” in data set [5] (IPA, 5° C.); “turned to Compound A Form A” in data set [5] (IPA, 5° C., listed as Compound A Form A+B); “Compound A Form A” in data set [5] (IPA, −20° C.); “turned to Compound A Form A” in data set [5] (IPA, −20° C., listed as Compound A Form A+B); “Compound A Form A” in data set [5] (Toluene, 5 to RT (RT for 18 days)); “Compound A Form A was observed” in data set [5] (Toluene, 5 to RT (RT for 18 days), listed as Compound A Form A+B). The “Slurry competition result (XRPD form)” value in data set [5] (Toluene, 5° C., after 5 days) is reported as “a mixture of Compound A Form A+B was observed”.
In the case of `C=CC(=O)N1CCN(c2nc(OC[C@@H]3CCCN3C)nc3c(F)c(-c4nc(N)cc(C)c4C(F)(F)F)c(Cl)cc23)[C@@H](C)C1.O=C(O)CCCCC(=O)O` [Amorphous material of Compound A], the Static storage observation entry in data set [6] (25° C./97% RH) and in data set [6] (40° C./75% RH) was “deliquesced” in each case.
